Test results reported in patent US12497405B2, “Bicyclic heterocycle compounds methods of use thereof for the treatment of herpes viruses” (Merck Sharp & Dohme LLC, priority 2019, dated 2025).

Each compound was assayed on HSV1 (assay: Viral qPCR assay, HSV1). Settings: Human alphaherpesvirus 1, 72 h, infected cells, viral genome copies by qPCR normalized to PPIA, read-out: HSV1 Cell EC50.
Type: cell-based
Procedure: (§1) MRC5 cells, Vero cells, and MeWo cells were obtained from ATCC, and were maintained at 37° C./5% CO2/90% relative humidity in Minimal Essential Medium with 10% fetal bovine serum, […] L-glutamine, 100 units/ml penicillin and 100 ug/ml streptomycin. Assay plates were prepared by dispensing compounds dissolved in DMSO into wells of 384 well collagen-coated plates using an ECHO acoustic dispenser. Each test compound was tested in a 10-point, serial 3-fold dilution. Controls included uninfected cells and infected cells treated only with DMSO. Assays were initiated by mixing selected cells, in suspension, with virus, and dispensing 50 μl/well infected cells to pre-plated compounds. Plates were incubated at 37° C./5% CO2/90% relative humidity for ˜72 hrs to permit genomic replication, and infected cells were lysed by the addition of an equal volume of lysis buffer (10 mM Tris-HCl, pH8, 50 mM KCl, 2 mM MgCl2, 0.45% NP-40, 0.45% Tween-20, and 100 µg/ml proteinase K). An aliquot of the lysate was then transferred to a 384-well PCR plate and incubated at 56° C. for 1 hour, and then at 95° C. for 10 minutes. Levels of the selected viral gene and of the cellular control, PPIA, were measured in separate 10 μl qPCR assays using TaqMan® Gene Expression Master Mix (Applied Biosystems), and an 7900HT Fast Real-Time PCR System with 384-Well Block Module. 7-point, serial 10-fold dilutions of a plasmid standard were run on each plate to generate a standard curve, and genome copies numbers were calculated by plotting experimental Ct onto linear regression of the standard curve. Viral genome copy numbers were normalized by cellular control copy number, and compound effects were normalized to the window defined by the controls. Calculated % effects were fit using a 4-parameter algorithm, and EC50 was reported.

Row | Compound | EC50 [nM]
1 | Cc1nc2cc(-c3cn4ccncc4n3)c(O[C@H]3CCN4C(=O)OC[C@@H]4C3)cc2c(=O)n1Cc1ccc(Cl)cc1 [Example 91] | 527
2 | Cc1cnc(-c2cc3nc(C)n(Cc4ccc(Cl)cc4)c(=O)c3cc2O[C@H]2CCN3C(=O)OC[C@@H]3C2)nc1 [Example 117] | 652
3 | O=C1OC[C@@H]2C[C@@H](Oc3cc4c(=O)n(Cc5ccc(Cl)cc5)c(CN5CCOCC5)nc4cc3-c3cnn(C(F)F)c3)CCN12 [Example 125] | 3830
4 | Cc1nc2cc(-c3cnc(C(F)F)nc3)c(O[C@H]3CCN4C(=O)OC[C@@H]4C3)cc2c(=O)n1Cc1ccc(Cl)cc1 [Example 124] | 198
5 | Cc1nc2cc(-c3cn4cccnc4n3)c(O[C@H]3CCN4C(=O)OC[C@@H]4C3)cc2c(=O)n1Cc1ccc(Cl)cc1 [Example 116] | 106
6 | Cc1nc2cc(-c3cnc(C4CCOCC4)nc3)c(O[C@H]3CCN4C(=O)OC[C@@H]4C3)cc2c(=O)n1Cc1ccc(Cl)cc1 [Example 115] | 313
7 | Cc1nc2cc(-c3cnc4nccn4c3)c(O[C@H]3CCN4C(=O)OC[C@@H]4C3)cc2c(=O)n1Cc1ccc(Cl)cc1 [Example 96] | 2920
8 | Cc1nc2cc(-c3cn4ccccc4n3)c(O[C@H]3CCN4C(=O)OC[C@@H]4C3)cc2c(=O)n1Cc1ccc(Cl)cc1 [Example 104] | 45
9 | Cc1nc2cc(-c3cccnn3)c(O[C@H]3CCN4C(=O)OC[C@@H]4C3)cc2c(=O)n1Cc1ccc(Cl)cc1 [Example 127] | 484
10 | Cc1nc2cc(-c3ccc4ncoc4c3)c(O[C@H]3CCN4C(=O)OC[C@@H]4C3)cc2c(=O)n1Cc1ccc(Cl)cc1 [Example 89] | 436
11 | O=C1OC[C@@H]2C[C@@H](Oc3cc4c(=O)n(Cc5ccc(Cl)cc5)c(N5CCOCC5)nc4cc3-c3cnn(C(F)F)c3)CCN12 [Example 142] | 154
12 | Cc1nc2cc(-c3cnc(OC4CCOCC4)nc3)c(O[C@H]3CCN4C(=O)OC[C@@H]4C3)cc2c(=O)n1Cc1ccc(Cl)cc1 [Example 109] | 413
13 | COc1cnnc(-c2cc3nc(C)n(Cc4ccc(Cl)cc4)c(=O)c3cc2O[C@H]2CCN3C(=O)OC[C@@H]3C2)c1 [Example 132] | 1470
14 | O=C1OC[C@@H]2C[C@@H](Oc3cc4c(=O)n(Cc5ccc(Cl)cc5)c(OC5CCC(O)CC5)nc4cc3-c3cnn(C(F)F)c3)CCN12 (single isomer, unassigned) [Example 141] | 258
15 | Cc1nc2cc(-c3nc4ccccn4n3)c(O[C@H]3CCN4C(=O)OC[C@@H]4C3)cc2c(=O)n1Cc1ccc(Cl)cc1 [Example 105] | 48
16 | Cc1nc2cc(-c3cc4cncnn4c3)c(O[C@H]3CCN4C(=O)OC[C@@H]4C3)cc2c(=O)n1Cc1ccc(Cl)cc1 [Example 107] | 52
17 | Cc1nc2cc(-c3nc4cnccn4n3)c(O[C@H]3CCN4C(=O)OC[C@@H]4C3)cc2c(=O)n1Cc1ccc(Cl)cc1 [Example 101] | 223
18 | COc1ncncc1-c1cc2nc(C)n(Cc3ccc(Cl)cc3)c(=O)c2cc1O[C@H]1CCN2C(=O)OC[C@@H]2C1 [Example 94] | 2410
19 | Cc1nc2cc(-c3cn4ccnc4s3)c(O[C@H]3CCN4C(=O)OC[C@@H]4C3)cc2c(=O)n1Cc1ccc(Cl)cc1 [Example 16] | 42
20 | Cc1nc2cc(-c3ncccn3)c(O[C@H]3CCN4C(=O)OC[C@@H]4C3)cc2c(=O)n1Cc1ccc(Cl)cc1 [Example 119] | 933

Each compound was assayed on HSV2 (assay: Viral qPCR assay, HSV2). Settings: Human alphaherpesvirus 2, 72 h, infected cells, viral genome copies by qPCR normalized to PPIA, read-out: HSV2 Cell EC50.
Type: cell-based
Procedure: as §1

Row | Compound | EC50 [nM]
21 | Cc1nc2cc(-c3cn4ccncc4n3)c(O[C@H]3CCN4C(=O)OC[C@@H]4C3)cc2c(=O)n1Cc1ccc(Cl)cc1 [Example 91] | 602
22 | Cc1cnc(-c2cc3nc(C)n(Cc4ccc(Cl)cc4)c(=O)c3cc2O[C@H]2CCN3C(=O)OC[C@@H]3C2)nc1 [Example 117] | 455
23 | O=C1OC[C@@H]2C[C@@H](Oc3cc4c(=O)n(Cc5ccc(Cl)cc5)c(CN5CCOCC5)nc4cc3-c3cnn(C(F)F)c3)CCN12 [Example 125] | 1280
24 | Cc1nc2cc(-c3cnc(C(F)F)nc3)c(O[C@H]3CCN4C(=O)OC[C@@H]4C3)cc2c(=O)n1Cc1ccc(Cl)cc1 [Example 124] | 120
25 | Cc1nc2cc(-c3cn4cccnc4n3)c(O[C@H]3CCN4C(=O)OC[C@@H]4C3)cc2c(=O)n1Cc1ccc(Cl)cc1 [Example 116] | 62
26 | Cc1nc2cc(-c3cnc(C4CCOCC4)nc3)c(O[C@H]3CCN4C(=O)OC[C@@H]4C3)cc2c(=O)n1Cc1ccc(Cl)cc1 [Example 115] | 111
27 | Cc1nc2cc(-c3cnc4nccn4c3)c(O[C@H]3CCN4C(=O)OC[C@@H]4C3)cc2c(=O)n1Cc1ccc(Cl)cc1 [Example 96] | 3280
28 | Cc1nc2cc(-c3cn4ccccc4n3)c(O[C@H]3CCN4C(=O)OC[C@@H]4C3)cc2c(=O)n1Cc1ccc(Cl)cc1 [Example 104] | 32
29 | Cc1nc2cc(-c3cccnn3)c(O[C@H]3CCN4C(=O)OC[C@@H]4C3)cc2c(=O)n1Cc1ccc(Cl)cc1 [Example 127] | 793
30 | Cc1nc2cc(-c3ccc4ncoc4c3)c(O[C@H]3CCN4C(=O)OC[C@@H]4C3)cc2c(=O)n1Cc1ccc(Cl)cc1 [Example 89] | 273
31 | O=C1OC[C@@H]2C[C@@H](Oc3cc4c(=O)n(Cc5ccc(Cl)cc5)c(N5CCOCC5)nc4cc3-c3cnn(C(F)F)c3)CCN12 [Example 142] | 38
32 | Cc1nc2cc(-c3cnc(OC4CCOCC4)nc3)c(O[C@H]3CCN4C(=O)OC[C@@H]4C3)cc2c(=O)n1Cc1ccc(Cl)cc1 [Example 109] | 153
33 | COc1cnnc(-c2cc3nc(C)n(Cc4ccc(Cl)cc4)c(=O)c3cc2O[C@H]2CCN3C(=O)OC[C@@H]3C2)c1 [Example 132] | 822
34 | O=C1OC[C@@H]2C[C@@H](Oc3cc4c(=O)n(Cc5ccc(Cl)cc5)c(OC5CCC(O)CC5)nc4cc3-c3cnn(C(F)F)c3)CCN12 (single isomer, unassigned) [Example 141] | 184
35 | Cc1nc2cc(-c3nc4ccccn4n3)c(O[C@H]3CCN4C(=O)OC[C@@H]4C3)cc2c(=O)n1Cc1ccc(Cl)cc1 [Example 105] | 55
36 | Cc1nc2cc(-c3cc4cncnn4c3)c(O[C@H]3CCN4C(=O)OC[C@@H]4C3)cc2c(=O)n1Cc1ccc(Cl)cc1 [Example 107] | 31
37 | Cc1nc2cc(-c3nc4cnccn4n3)c(O[C@H]3CCN4C(=O)OC[C@@H]4C3)cc2c(=O)n1Cc1ccc(Cl)cc1 [Example 101] | 88
38 | COc1ncncc1-c1cc2nc(C)n(Cc3ccc(Cl)cc3)c(=O)c2cc1O[C@H]1CCN2C(=O)OC[C@@H]2C1 [Example 94] | 1880
39 | Cc1nc2cc(-c3cn4ccnc4s3)c(O[C@H]3CCN4C(=O)OC[C@@H]4C3)cc2c(=O)n1Cc1ccc(Cl)cc1 [Example 16] | 18
40 | Cc1nc2cc(-c3ncccn3)c(O[C@H]3CCN4C(=O)OC[C@@H]4C3)cc2c(=O)n1Cc1ccc(Cl)cc1 [Example 119] | 921

What follows are compounds tested on CMV (assay: Viral qPCR assay, CMV). Settings: Human betaherpesvirus 5, 72 h, infected cells, viral genome copies by qPCR normalized to PPIA, read-out: CMV Cell EC50.
Type: cell-based
Procedure: as §1

Row | Compound | EC50 [nM]
41 | Cc1nc2cc(-c3cn4ccncc4n3)c(O[C@H]3CCN4C(=O)OC[C@@H]4C3)cc2c(=O)n1Cc1ccc(Cl)cc1 [Example 91] | 479
42 | Cc1cnc(-c2cc3nc(C)n(Cc4ccc(Cl)cc4)c(=O)c3cc2O[C@H]2CCN3C(=O)OC[C@@H]3C2)nc1 [Example 117] | 304
43 | O=C1OC[C@@H]2C[C@@H](Oc3cc4c(=O)n(Cc5ccc(Cl)cc5)c(CN5CCOCC5)nc4cc3-c3cnn(C(F)F)c3)CCN12 [Example 125] | 4240
44 | Cc1nc2cc(-c3cnc(C(F)F)nc3)c(O[C@H]3CCN4C(=O)OC[C@@H]4C3)cc2c(=O)n1Cc1ccc(Cl)cc1 [Example 124] | 163
45 | Cc1nc2cc(-c3cn4cccnc4n3)c(O[C@H]3CCN4C(=O)OC[C@@H]4C3)cc2c(=O)n1Cc1ccc(Cl)cc1 [Example 116] | 127
46 | Cc1nc2cc(-c3cnc(C4CCOCC4)nc3)c(O[C@H]3CCN4C(=O)OC[C@@H]4C3)cc2c(=O)n1Cc1ccc(Cl)cc1 [Example 115] | 258
47 | Cc1nc2cc(-c3cnc4nccn4c3)c(O[C@H]3CCN4C(=O)OC[C@@H]4C3)cc2c(=O)n1Cc1ccc(Cl)cc1 [Example 96] | 2060
48 | Cc1nc2cc(-c3cn4ccccc4n3)c(O[C@H]3CCN4C(=O)OC[C@@H]4C3)cc2c(=O)n1Cc1ccc(Cl)cc1 [Example 104] | 99
49 | Cc1nc2cc(-c3cccnn3)c(O[C@H]3CCN4C(=O)OC[C@@H]4C3)cc2c(=O)n1Cc1ccc(Cl)cc1 [Example 127] | 280
50 | Cc1nc2cc(-c3ccc4ncoc4c3)c(O[C@H]3CCN4C(=O)OC[C@@H]4C3)cc2c(=O)n1Cc1ccc(Cl)cc1 [Example 89] | 375
51 | O=C1OC[C@@H]2C[C@@H](Oc3cc4c(=O)n(Cc5ccc(Cl)cc5)c(N5CCOCC5)nc4cc3-c3cnn(C(F)F)c3)CCN12 [Example 142] | 129
52 | Cc1nc2cc(-c3cnc(OC4CCOCC4)nc3)c(O[C@H]3CCN4C(=O)OC[C@@H]4C3)cc2c(=O)n1Cc1ccc(Cl)cc1 [Example 109] | 465
53 | COc1cnnc(-c2cc3nc(C)n(Cc4ccc(Cl)cc4)c(=O)c3cc2O[C@H]2CCN3C(=O)OC[C@@H]3C2)c1 [Example 132] | 1470
54 | Cc1nc2cc(-c3nc4ccccn4n3)c(O[C@H]3CCN4C(=O)OC[C@@H]4C3)cc2c(=O)n1Cc1ccc(Cl)cc1 [Example 105] | 112
55 | Cc1nc2cc(-c3cc4cncnn4c3)c(O[C@H]3CCN4C(=O)OC[C@@H]4C3)cc2c(=O)n1Cc1ccc(Cl)cc1 [Example 107] | 52
56 | Cc1nc2cc(-c3nc4cnccn4n3)c(O[C@H]3CCN4C(=O)OC[C@@H]4C3)cc2c(=O)n1Cc1ccc(Cl)cc1 [Example 101] | 449
57 | COc1ncncc1-c1cc2nc(C)n(Cc3ccc(Cl)cc3)c(=O)c2cc1O[C@H]1CCN2C(=O)OC[C@@H]2C1 [Example 94] | 1470
58 | Cc1nc2cc(-c3cn4ccnc4s3)c(O[C@H]3CCN4C(=O)OC[C@@H]4C3)cc2c(=O)n1Cc1ccc(Cl)cc1 [Example 16] | 33
59 | Cc1nc2cc(-c3ncccn3)c(O[C@H]3CCN4C(=O)OC[C@@H]4C3)cc2c(=O)n1Cc1ccc(Cl)cc1 [Example 119] | 397

Same assay, conditions: infected cells, ~72 hrs, viral genome copies by qPCR normalized to PPIA; read-out: CMV Cell EC50

Row | Compound | EC50 [nM]
60 | O=C1OC[C@@H]2C[C@@H](Oc3cc4c(=O)n(Cc5ccc(Cl)cc5)c(OC5CCC(O)CC5)nc4cc3-c3cnn(C(F)F)c3)CCN12 (single isomer, unassigned) [Example 141] | 205
